≈ marks a conversion by molar mass, not a printed value. Where a name gives a salt, the structure may show the parent alone. Read-outs that look alike come from different tables or passages of the source.
Columns and labels:
Mtb H37Ra (ATCC 25177) = experiment: In vitro screen versus Mtb H37Ra (Alamar blue microdilution broth assay, MIC99); assay type: cell-based, M. tuberculosis; conditions: Mycobacterium tuberculosis
Method: The initial screening set and selected other compounds were tested for their inhibitory activity against Mtb H37Ra (ATCC 25177) and MAC NJ211 strains. Screening was performed at 1.28 and 12.8 μg/mL in Middlebrook 7H9 broth supplemented with 0.2% glycerol and ADC enrichment using a colorimetric (Alamar blue) microdilution broth assay by reported methods.[15]

Mtb H37Rv = experiment: In vitro qHTS assay against Mtb H37Rv (IC90); assay type: cell-based, M. tuberculosis; conditions: for IC90: read-out: Mtb H37Rv IC90
MAC NJ211 = experiment: In vitro screen versus MAC NJ211 (Alamar blue microdilution broth assay, MIC99); assay type: cell-based; conditions: read-out: MAC NJ211 MIC99
Mtb FtsZ = Mtb FtsZ (Mycobacterium tuberculosis, UniProt P9WN95); experiment: biochemical; assay type: biochemical
Mtb FtsZ, sequence (P9WN95 whole entry): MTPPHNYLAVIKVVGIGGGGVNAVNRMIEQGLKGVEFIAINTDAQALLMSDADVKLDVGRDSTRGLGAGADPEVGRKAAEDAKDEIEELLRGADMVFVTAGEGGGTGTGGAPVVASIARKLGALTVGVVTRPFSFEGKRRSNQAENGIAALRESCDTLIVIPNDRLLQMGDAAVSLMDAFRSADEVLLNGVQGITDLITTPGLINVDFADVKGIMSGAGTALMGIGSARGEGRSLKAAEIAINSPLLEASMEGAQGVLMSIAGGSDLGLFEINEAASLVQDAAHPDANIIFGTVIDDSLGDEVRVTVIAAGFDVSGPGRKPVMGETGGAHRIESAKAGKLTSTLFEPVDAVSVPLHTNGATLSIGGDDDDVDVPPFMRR

[1] = lowest drug concentration that completely inhibited growth, read-out: Mtb H37Ra MIC99
[2] = Mycobacterium tuberculosis, H37RV, concentration that inhibits bacterial growth by 90%
[3] = lowest drug concentration that completely inhibited growth
[4] = same MIC99 given in μM, read-out: Mtb H37Ra MIC99 (concentration in μM in parentheses)
[5] = mean ± standard deviation, at least three times per assay, NA = not active up to 100 μM, read-out: Mtb FtsZ Polymerization IC50
[6] = concentration that inhibits bacterial growth by 90%

Structure (SMILES) | MIC99 (Mtb H37Ra (ATCC 25177); [1]) [µg/mL] | IC90 (Mtb H37Rv; [2]) [µM] | MIC99 (MAC NJ211; [3]) [µg/mL] | IC50 (Mtb FtsZ; [5]) [µM] | melting point [°C] | also measured
CSc1ccc(/C=C2/C(C)=C(CCNCCN3CCCCC3)c3cc(F)ccc32)cc1 [Compound 60, (Z)-2-(5-Fluoro-2-methyl-1-(4-(methylthio)benzylidene)-1H-inden-3-yl)-N-(2-(piperidin-1-yl)ethyl)ethanamine] | 2 |  |  |  |  | fold more active against Mtb H37Rv than corresponding analog (Mtb H37Rv; 48 vs 23, 57 vs 56, 60 vs 24): 1.6 fold; IC90 (Mtb H37Rv; Mycobacterium tuberculosis, H37RV): 0.88 ± 0.01 µM; MIC99 (MAC NJ211): 8 µg/mL (≈ 18.3 µM)
O=c1c(O)c(-c2cc(O)c(O)c(O)c2)oc2cc(O)cc(O)c12 [Compound 4, Myrcetin] | > 128 |  |  |  |  | IC50 (Mtb FtsZ): 42.4 ± 6.3 µM; MIC99 (MAC NJ211): > 128 µg/mL
CN(C)c1ccc(O)c2c1C[C@H]1C[C@H]3[C@H](N(C)C)C(O)=C(C(N)=O)C(=O)[C@@]3(O)C(O)=C1C2=O [Compound 6, Minocycline] | ≤ 0.5 |  |  |  |  | IC50 (Mtb FtsZ): 37.3 ± 4.6 µM
CSc1ccc(/C=C2/C(C)=C(CCNCc3ccco3)c3cc(F)ccc32)cc1 [Compound 59, (Z)-2-(5-Fluoro-2-methyl-1-(4-(methylthio)benzylidene)-1H-inden-3-yl)-N-(furan-2-ylmethyl)ethanamine] | 4 | 1.69 ± 0.06 | 8 (≈ 19.7 µM) |  |  | 
Nc1nonc1C(=O)N/N=C/c1cc(Cl)cc(Cl)c1O [Compound 12, ChemBridge 5481893] | 64 |  | > 64 | 33.4 ± 3 |  | MIC99 (Mtb H37Ra (ATCC 25177); [4]): 202 µM
CSc1ccc(/C=C2/C(C)=C(CC(=O)NCc3ccc(N(C)C)cc3)c3cc(F)ccc32)cc1 [Compound 35, (Z)-N-(4-(Dimethylamino)benzyl)-2-(5-fluoro-2-methyl-1-(4-(methylthio)benzylidene)-1H-inden-3-yl)acetamide] | 64 | > 100 |  | 22.9 ± 4.8 | 174 to 177 | inhibition at 50 µM (Mtb H37Rv; Mycobacterium tuberculosis, H37RV, at 50 μM): 82%; Mtb H37Rv IC90 (Mtb H37Rv; [6]): inactive
CC[C@@H](CO)NCCN[C@@H](CC)CO [Ethambutol] | 2 to 4 |  | 4 to 8 (≈ 19.6 to 39.2 µM) |  |  | 
COc1cc2c(cc1O)CC[n+]1cc3cc(OC)c(OC)cc3cc1-2 [Compound 9, Pseudojatrorrhizine] | > 64 |  | 64 | 105 ± 32 |  | 
CSc1ccc(/C=C2\C(C)=C(CC(=O)NCCN(C)C)c3cc(F)ccc32)cc1 [Compound 61, (E)-N-(2-(Dimethylamino)ethyl)-2-(5-fluoro-2-methyl-1-(4-(methylthio)benzylidene)-1H-inden-3-yl)acetamide] | 16 | 7.7 ± 0.33 | 16 (≈ 39 µM) | 44.6 ± 6.3 |  | 
CNCCN(C)C(=O)CC1=C(C)/C(=C/c2ccc(SC)cc2)c2ccc(F)cc21 [Compound 23, (Z)-2-(5-Fluoro-2-methyl-1-(4-(methylthio)benzylidene)-1H-inden-3-yl)-N-methyl-N-(2-(methylamino)ethyl)acetamide] | 8 | 8.28 ± 0.33 |  | 34.9 ± 7 |  | 
CC(C)c1c(O)ccc2c1CC[C@H]1C(C)(C)CCC[C@]21C [Compound 13, Totarol] | 25 |  | 25 (≈ 87.3 µM) | 47.5 ± 4.9 |  | MIC99 (Mtb H37Ra (ATCC 25177); [4]): 87.3 µM
CN(C)[C@@H]1C(O)=C(C(N)=O)C(=O)[C@@]2(O)C(O)=C3C(=O)c4c(O)cccc4[C@@](C)(O)[C@H]3C[C@@H]12 [Compound 5, Tetracycline] | 1 |  |  |  |  | IC50 (Mtb FtsZ): 87.1 ± 10.7 µM
Oc1ccc(Cl)cc1Cc1cc(Cl)cc(Cc2cc(Cl)ccc2O)c1O [Compound 17, Zantrin Z1] | 8 |  | 16 (≈ 39.1 µM) |  |  | 
CC/C(=C(\c1ccccc1)c1ccc(OCCN(C)C)cc1)c1ccccc1 [Compound 11, Tamoxifen citrate] |  |  | 32 |  |  | 
CSc1ccc(/C=C2/C(C)=C(CC(=O)N(C)CCN(C)C(=O)C(N)C(C)C)c3cc(F)ccc32)cc1 (centres unmarked) [Compound 56, (Z)-2-Amino-N-(2-(2-(5-fluoro-2-methyl-1-(4-(methylthio)benzylidene)-1H-inden-3-yl)-N-methylacetamido)ethyl)-N,3-dimethylbutanamide] | 8 | 4.34 ± 0.06 |  | 38 ± 6.3 |  | 
COc1cc2c(c(OC)c1OC)-c1ccc(OC)c(=O)cc1[C@@H](NC(C)=O)CC2 [Compound 1, Colchicine] |  |  | > 64 |  |  | MIC99 (Mtb H37Ra (ATCC 25177); read-out: Mtb H37Ra MIC99): > 64 µg/mL
CCN(CC)CCNc1nc(/C=C/c2ccc(Cl)cc2)nc2cc3ccccc3cc12 [Compound 16, Zantrin Z3] | 1 |  | 2 (≈ 4.64 µM) |  |  | 
CSc1ccc(/C=C2/C(C)=C(CCNCc3ccccc3)c3cc(F)ccc32)cc1 [Compound 58] | 2 | 2.07 ± 0.01 | 4 (≈ 9.63 µM) |  |  | 
O=C(O)c1cc(O)c2c(c1)C(=O)c1cccc(O)c1C2=O [Compound 2, Rhein] | 32 |  | > 128 |  |  | MIC99 (Mtb H37Ra (ATCC 25177); [4]): 113 µM; IC50 (Mtb FtsZ): 44.6 ± 6.3 µM
CSc1ccc(/C=C2/C(C)=C(CC(=O)N3CCC[C@H]3CN3CCCC3)c3cc(F)ccc32)cc1 [Compound 29, (S,Z)-2-(5-Fluoro-2-methyl-1-(4-(methylthio)benzylidene)-1H-inden-3-yl)-1-(2-(pyrrolidin-1-ylmethyl)pyrrolidin-1-yl)ethanone] |  | 4.06 ± 0.03 |  |  | 101 to 104 | 
CCN1CCC[C@H]1CNC(=O)CC1=C(C)/C(=C/c2nc3ccccc3s2)c2ccc(F)cc21 [Compound 42, (S,Z)-2-(1-(Benzo[d]thiazol-2-ylmethylene)-5-fluoro-2-methyl-1H-inden-3-yl)-N-((1-ethylpyrrolidin-2-yl)methyl)acetamide] |  | 5.46 ± 0.12 |  |  | 168 to 171 | 
CSc1ccc(/C=C2/C(C)=C(CC(=O)NCc3ccco3)c3cc(F)ccc32)cc1 [Compound 36, (Z)-2-(5-Fluoro-2-methyl-1-(4-(methylthio)benzylidene)-1H-inden-3-yl)-N-(furan-2-ylmethyl)acetamide] |  | > 100 |  |  | 166 to 168 | Mtb H37Rv IC90 (Mtb H37Rv; [6]): inactive
CC1=C(CC(=O)N(C)CCN(C)C)c2cc(F)ccc2/C1=C\c1nc2ccccc2s1 [Compound 39, (Z)-2-(1-(Benzo[d]thiazol-2-ylmethylene)-5-fluoro-2-methyl-1H-inden-3-yl)-N-(2-(dimethylamino)ethyl)-N-methylacetamide] |  | 9.97 ± 0.33 |  |  | 103 to 106 | 
CSc1ccc(/C=C2/C(C)=C(CC(=O)NCCN3CCCC3)c3cc(F)ccc32)cc1 [Compound 26, (Z)-2-(5-Fluoro-2-methyl-1-(4-(methylthio)benzylidene)-1H-inden-3-yl)-N-(2-(pyrrolidin-1-yl)ethyl)acetamide] | 8 | 3.04 ± 0.04 |  | 33.5 ± 5.9 | 106 to 108 | 
COc1cc(/C=C(\C#N)C(N)=O)cc(CSc2nc3ccccc3s2)c1O [Compound 15, AG-825] |  |  |  | 31.7 ± 1.7 |  | 
CSc1ccc(/C=C2/C(C)=C(CC(=O)N(C)CCN(C)C)c3cc(F)ccc32)cc1 [Compound 19, (Z)-N-(2-(Dimethylamino)ethyl)-2-(5-fluoro-2-methyl-1-(4-(methylthio)benzylidene)-1H-inden-3-yl)-N-methylacetamide] | 16 | 6.67 ± 0.14 |  | 42.3 ± 6 |  | 
CSc1ccc(/C=C2/C(C)=C(CC(=O)NCCCn3ccnc3)c3cc(F)ccc32)cc1 [Compound 33, (Z)-N-(3-(1H-Imidazol-1-yl)propyl)-2-(5-fluoro-2-methyl-1-(4-(methylthio)benzylidene)-1H-inden-3-yl)acetamide] |  | 1.18 ± 0.01 |  |  | 103 to 105 | 
CSc1ccc(/C=C2/C(C)=C(C(C)C(=O)NCCCN3CCCCC3C)c3cc(F)ccc32)cc1 (centres unmarked) [Compound 50, (Z)-2-(5-Fluoro-2-methyl-1-(4-(methylthio)benzylidene)-1H-inden-3-yl)-N-(3-(2-methylpiperidin-1-yl)propyl)propanamide] |  | 1.64 ± 0.07 |  |  | 87 to 89 | 
CSc1ccc(/C=C2/C(C)=C(CC(=O)N3CCC(N4CCCCC4)CC3)c3cc(F)ccc32)cc1 [Compound 30, (Z)-1-([1,4'-Bipiperidin]-1'-yl)-2-(5-fluoro-2-methyl-1-(4-(methylthio)benzylidene)-1H-inden-3-yl)ethanone] |  | 2.75 ± 0.02 |  |  | 145 to 148 | 
O=c1c(O)c(-c2ccc(O)c(O)c2)oc2cc(O)cc(O)c12 [Compound 3, Quercetin dihydrate] | > 128 |  |  |  |  | IC50 (Mtb FtsZ): 21.7 ± 4.8 µM; MIC99 (MAC NJ211): > 128 µg/mL

From PMC5074515 (PLoS ONE, 2016)
